Publication PMC7887336, “Altered functional properties of the codling moth Orco mutagenized in the intracellular loop-3” (Scientific Reports, 2021)
“And” between values parts separate entries of the source, which are not always exact repeats. Equal values may be shown once.

Experiments:
CpomOrco^Q417H = CpomOrco^Q417H (Cydia pomonella, UniProt H9A5M2, Q417H); experiment: Whole-cell voltage-clamp recordings of HEK293A cells transfected with CpomOrco^Q417H, VUAA1; format: cell-based; details: for EC50: EC50 (K1/2)
Chain of CpomOrco^Q417H (H9A5M2 entry or part of it Q417H): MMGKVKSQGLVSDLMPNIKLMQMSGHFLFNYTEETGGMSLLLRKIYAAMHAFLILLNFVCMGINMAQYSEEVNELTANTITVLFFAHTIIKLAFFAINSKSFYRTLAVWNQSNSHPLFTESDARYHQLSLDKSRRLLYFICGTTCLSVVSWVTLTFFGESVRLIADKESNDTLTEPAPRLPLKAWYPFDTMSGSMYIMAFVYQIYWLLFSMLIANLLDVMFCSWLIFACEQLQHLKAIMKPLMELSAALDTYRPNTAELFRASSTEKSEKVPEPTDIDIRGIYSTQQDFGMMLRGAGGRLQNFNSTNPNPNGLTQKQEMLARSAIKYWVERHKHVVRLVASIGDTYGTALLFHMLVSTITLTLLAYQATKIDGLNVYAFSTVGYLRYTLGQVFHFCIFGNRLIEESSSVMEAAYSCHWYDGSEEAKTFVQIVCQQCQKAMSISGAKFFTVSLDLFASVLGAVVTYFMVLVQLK
Experimental: (§1) HEK293 cells lines (HEK293A/HEK293T) were grown in HEK cell media [Dulbecco's modified Eagle's medium containing 10% fetal bovine serum (MP Biomedicals, Solon, OH, USA), 2.0 mM L-glutamine, and 100 µg/mL penicillin/streptomycin (Invitrogen)] at 37 °C and 5% CO2. To test transient expression of wild type CpomOrco and CpomOrco^Q417H variant for calcium imaging and patch-clamp recording, 35-mm petri dishes containing semi-confluent HEK293A cells were transiently transfected. Cells were transfected with 0.6 µg of pcDNA40-DEST carrying the coding sequence of the CpomOrco variant (depending on the experiments). To report expression for calcium imaging experiments, 0.6 µg of a separate plasmid DNA [pEBFP2-Nuc, a gift from Robert Campbell (Addgene plasmid # 1489352)] carrying the coding sequence for a blue fluorescent protein (EBFP) was co-transfected. To report expression in patch-clamp recordings, 1.0 µg of a separate plasmid DNA (pXOOM, Clontech, Mountain View, CA, USA) carrying the coding sequence for a green fluorescent protein (GFP) was co-transfected. Expressions of fluorescent reporter genes were under the regulation of the same promoter for Cpom-genes (CMV). For specific experiments, co-transfections were conducted combining an additional 1.2 µg of pcDNA40-DEST/CpomOR3 or pcDNA40-DEST/CpomOR6a, as we previously described. Co-transfections with CpomOR3 were performed for dose–response experiments to pear ester: CpomOR3 was co-expressed with CpomOrco variants by the use of HEK293T (Fig. 3b); given the reported functional co-expression data of the CpomOrco + OR3 heteromers by the use of these specific cells. In brief, transfection DNAs were dissolved in 100 µL sterile DMEM, mixed with 3.0 µL Calfectin (SignaGen, Rockville, MD, USA) following the recommended protocol. Transfections were conducted overnight for up to 18 h, HEK cell media was replaced with 2.0 mL fresh media to incubate cells at 37 °C for up to 6–8 h, at which point part of the cell culture was spread in the middle of a 35-mm plate as individual cells or small clusters and rinsed at the sides with 2.0 mL fresh HEK media. After splitting, cells were allowed to recover for at least 1 day prior to calcium imaging.
Electrophysiological experiments were performed according with the same procedures we previously described. Patch pipettes were fabricated from borosilicate capillary glass (BF150-86–10, Sutter Instrument, CA, USA) using a Flaming-Brown micropipette puller (P-87, Sutter Instrument). Only patches with initial cell-attached seal resistance estimated higher than 1.0 GOhms were used in the experiments. Intracellular (pipette) solution for whole-cell experiments was KCl 140 mM, EGTA 1 mM, Hepes 5 mM, MES 5 mM, pH 8.0 or pH 5.5 (depending on the experiment) adjusted with either NaOH or HCl, standard Na^+ 140 mM. bath solution was usually NaCl 140 mM, EGTA 0.1 mM, Hepes 10 mM, pH 7.4 (adjusted with Tris-base or NaOH). VUAA1 doses (0–1000 µM) were added to the extracellular test solutions.
As described in methods of Cattaneo et al.[14], GFP positive HEK293A cells were visualized using either an Axiovert 100 inverted microscope (Carl Zeiss, Inc., München, Germany) equipped with a mercury vapour compressed-arc lamp (HBO100) coupled to widefield fluorescence filter set (1114–459, Carl Zeiss, Inc.) or Olympus IX-71 inverted microscope described above (Olympus Corp.). The Orco channel-mediated currents were investigated using whole-cell patch-clamp recordings. The currents were measured with a 200B patch-clamp amplifier (Molecular Devices) and a digital interface (Digidata 1320A, Molecular Devices), low pass filtered at 5.0 kHz, sampled at 1–2 kHz. Analysis of the data was carried out using pCLAMP 9.2/10.5 software (Molecular Devices) and SigmaPlot 11 (Systat Software Inc). […]

CpomOrco = CpomOrco (Cydia pomonella, UniProt H9A5M2); experiment: Calcium imaging (Fluo-4) of HEK293A cells transfected with wild-type CpomOrco, VUAA1 stimulation; format: cell-based; details: for Fluo4 + cells, %: of bright field cells; for EC50 / Hill coefficient / maximum response (Hill fit of calcium response amplitudes): HEK293A, CpomOrco
Chain of CpomOrco (H9A5M2 entry or part of it): as the sequence (H9A5M2 entry or part of it Q417H) above, with H417Q counted along it
Experimental: as §1
Activation of HEK293 cells transfected with CpomOrco variants was tested using the same procedures we previously described. Petri dishes were incubated for 1 h at room temperature in 1.0 mL HEK Ca^++ Ringer (mM: 140 NaCl, 5.0 KCl, 2.0 CaCl2, 10 HEPES, pH 7.4) containing the fluorescent calcium indicator Fluo-4AM (Invitrogen) at 5–15 µM prepared with 0.2–0.06% Pluronic F-127 (Invitrogen). To monitor intracellular pH, HEK293A cells were loaded with 10.0 µL BCECF dye (Anaspec, Fremont, CA).
As reported in Cattaneo et al.[14], the buffer was removed after incubation, cells were rinsed with 4.0 mL fresh HEK Ca^++ Ringer and placed on the stage of an inverted microscope (Olympus IX-71, Olympus Corp., Tokyo, Japan) equipped with a cooled CCD camera (ORCA R2, Hamamatsu, Hamamatsu City, Japan). Cells were continuously superfused with Ca^++ Ringer using two gravity fed perfusion contours. The […] contour washing the cells (~ 250 µL/min) was switched rapidly to the stimulus contour using a multi-channel rapid solution changer (RSC-160, Bio-Logic, Claix, France) under the software control of Clampex 9 (Molecular Devices, Sunnyvale, CA, USA).
Fluorescence imaging was performed using settings optimized for Imaging Workbench 6 software (INDEC BioSystems, Santa Clara, CA, USA)[14]. The non-responsive cells were not included in these analyses. Each cell was assigned a region of interest (ROI) and changes in fluorescence intensity within each ROI were measured and expressed as the fractional change in fluorescence intensity (dF). Stored time series image stacks were analysed off-line using Imaging Workbench 6, Clampfit 10.5 (Molecular Devices) and SigmaPlot 11 (Systat Software Inc., San Jose, CA, USA). Dose–response curves were approximated using Hill equation. […]

[1] = intracellular pH = 5.5, extracellular pH 7.4, -50 mV
[2] = intracellular pH = 8.0, extracellular pH 7.4, -50 mV
[3] = after 30 min incubation at low pHe = 4.7

CCc1ccc(NC(=O)CSc2nnc(-c3cccnc3)n2CC)cc1 [VUAA1, acetamide,N-(4-ethylphenyl)-2-[[4-ethyl-5-(3-pyridinyl)-4H-1,2,4-triazol-3-yl]thio]-]
EC50 (CpomOrco^Q417H; [1]): ~550 µM
EC50 (CpomOrco^Q417H; [2]): ~615 µM
h (Hill equation) (CpomOrco^Q417H; intracellular pH = 5.5): ~ 4 ± 1.4
number of cells sensitive to VUAA1 (CpomOrco^Q417H; intracellular pH = 5.5, GFP positive cells tested): 6 out of 9
Imax (whole-cell current amplitude, Hill fit) (CpomOrco^Q417H; [1]): ~216 pA and ~ 216 ± 23 pA
h (Hill equation) (CpomOrco^Q417H; intracellular pH = 8.0): ~ 5 ± 1.9
number of cells sensitive to VUAA1 (CpomOrco^Q417H; intracellular pH = 8.0, GFP positive cells tested): 11 out of 17
Imax (whole-cell current amplitude, Hill fit) (CpomOrco^Q417H; [2]): ~ 332 pA and ~ 332 ± 44 pA
Fluo4 + cells, % (CpomOrco; 800 µM VUAA1, Experiment 1, CpomOrco): 30,99%
Fluo4 + cells, % (CpomOrco; 800 µM VUAA1, Experiment 2, CpomOrco): 35,06%
percentage of cells sensitive to VUAA1 (relative to total number of visible cells) (CpomOrco; 800 µM VUAA1, HEK293A transfected with CpomOrco and EBFP, range of two experiments): 30.99–35.06%
EC50 (CpomOrco; [3]): ~260 µM
Hill coefficient (CpomOrco; [3]): ~ 2.5 ± 4.3
maximum response (Hill fit of calcium response amplitudes) (CpomOrco; after 30 min incubation at low pHe = 4.7, n = 84, constraints applied to fit): ~ 1.3 ± 0.7 ∆F and 1.3 ∆F
Hill coefficient (CpomOrco; control pH conditions (pH 7.4)): ~ 2.4 ± 0.1
EC50 (CpomOrco; control pH conditions (pH 7.4), Hill fit): ~157 µM
maximum response (Hill fit of calcium response amplitudes) (CpomOrco; control pH conditions (pH 7.4), N = 123 cells): ~ 6.3 ∆F and ~ 6.3 ± 0.1 ∆F and 6.3 ∆F
